Assay results taken from patent publication US6525001B1, “Substituted pyrimidine and pyridine herbicides” (Mid-American Commercialization Corporation, priority 1997, dated 2003).

How the values were obtained:
Assay in all cases: Test B pre-/postemergence
Type in all cases: in vivo
Parameters in all cases: key: 0 is no effect; 10 is complete control
[1] = system: broadleaf signalgrass (Brachiaria decumbens)
Summary of the method: (§1)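 Seeds were planted and sprayed preemergence, while plants at 2 to 18 cm (1- to 4-leaf stage) were sprayed postemergence at the same time, with test chemical in a non-phytotoxic solvent mixture containing surfactant. After twelve to sixteen days in a greenhouse, injury was rated visually against untreated controls on a 0–10 scale.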

[2] = system: bedstraw (Galium aparine)
Summary of the method: as §1

rape (Brassica napus) = system: rape (Brassica napus)
Summary of the method: as §1

[3] = system: sugar beet (Beta vulgaris)
Summary of the method: as §1

corn (Zea mays) = system: corn (Zea mays)
Summary of the method: as §1

soybean (Glycine max) = system: soybean (Glycine max)
Summary of the method: as §1

[4] = system: pigweed (Amaranthus retroflexus)
Summary of the method: as §1

[5] = system: blackgrass (Alopecurus myosuroides)
Summary of the method: as §1

[6] = system: velvetleaf (Abutilon theophrasti)
Summary of the method: as §1

[7] = system: cocklebur (Xanthium strumarium)
Summary of the method: as §1

[8] = system: momingglory (Ipomoea hederacea)
Summary of the method: as §1

[9] = system: crabgrass (Digitaria sanguinalis)
Summary of the method: as §1

[10] = system: wheat (Triticum aestivum)
Summary of the method: as §1

wild oat (Avena fatua) = system: wild oat (Avena fatua)
Summary of the method: as §1

[11] = Preemergence, Rate 62 g/ha, scale of 0 to 10

`Cc1cnc(-c2ccc(C(F)(F)F)cc2)nc1C(=O)c1cccc(C(F)(F)F)c1` [Compound 73] was tested, and the “B. signalgrass plant response rating” value ([1]; Rate 62 g/ha, Postemergence) was 8, the “B. signalgrass plant response rating” value ([1]; Rate 62 g/ha, Preemergence) was 9 and the “B. signalgrass plant response rating” value ([1]; Rate 125 g/ha, Postemergence) was 9. For the same compound, the “Plant response rating, B. signalgrass” value ([1]; Rate 125 g/ha, Preemergence) was 9, the “Plant response rating, B. signalgrass” value ([1]; Rate 250 g/ha, Postemergence) was 9 and the “Plant response rating, B. signalgrass” value ([1]; Rate 250 g/ha, Preemergence) was 9. For the same compound, the “Plant response rating, B. signalgrass” value ([1]; Rate 500 g/ha, Postemergence) was 8, the “Plant response rating, B. signalgrass” value ([1]; Rate 500 g/ha, Preemergence) was 10 and the “Plant response rating, Bedstraw” value [2, 11] was 2. The “Bedstraw plant response rating” value ([2]; Rate 62 g/ha, Postemergence) was 9, the “Bedstraw plant response rating” value ([2]; Rate 125 g/ha, Postemergence) was 9 and the “Plant response rating, Bedstraw” value ([2]; Rate 125 g/ha, Preemergence) was 8. For the same compound, the “Plant response rating, Bedstraw” value ([2]; Rate 250 g/ha, Postemergence) was 9, the “Plant response rating, Bedstraw” value ([2]; Rate 250 g/ha, Preemergence) was 9 and the “Plant response rating, Bedstraw” value ([2]; Rate 500 g/ha, Postemergence) was 9. For the same compound, the “Plant response rating, Bedstraw” value ([2]; Rate 500 g/ha, Preemergence) was 10, the “Plant response rating, Rape” value (rape (Brassica napus); [11]) was 2 and the “Rape plant response rating” value (rape (Brassica napus); Rate 62 g/ha, Postemergence) was 10. The “Rape plant response rating” value (rape (Brassica napus); Rate 125 g/ha, Postemergence) was 10, the “Plant response rating, Rape” value (rape (Brassica napus); Rate 125 g/ha, Preemergence) was 6 and the “Plant response rating, Rape” value (rape (Brassica napus); Rate 250 g/ha, Postemergence) was 10. The “Plant response rating, Rape” value (rape (Brassica napus); Rate 250 g/ha, Preemergence) was 6, the “Plant response rating, Rape” value (rape (Brassica napus); Rate 500 g/ha, Postemergence) was 10 and the “Plant response rating, Rape” value (rape (Brassica napus); Rate 500 g/ha, Preemergence) was 10. For the same compound, the “Plant response rating, Sugarbeets” value [3, 11] was 9, the “Sugarbeets plant response rating” value ([3]; Rate 62 g/ha, Postemergence) was 10 and the “Sugarbeets plant response rating” value ([3]; Rate 125 g/ha, Postemergence) was 10. The “Plant response rating, Sugarbeets” value ([3]; Rate 125 g/ha, Preemergence) was 9, the “Plant response rating, Sugarbeets” value ([3]; Rate 250 g/ha, Postemergence) was 9 and the “Plant response rating, Sugarbeets” value ([3]; Rate 250 g/ha, Preemergence) was 10. The “Plant response rating, Sugarbeets” value ([3]; Rate 500 g/ha, Postemergence) was 9, the “Plant response rating, Sugarbeets” value ([3]; Rate 500 g/ha, Preemergence) was 10 and the “Plant response rating, Corn” value (corn (Zea mays); [11]) was 1. For the same compound, the “Corn plant response rating” value (corn (Zea mays); Rate 62 g/ha, Postemergence) was 2, the “Corn plant response rating” value (corn (Zea mays); Rate 125 g/ha, Postemergence) was 3 and the “Plant response rating, Corn” value (corn (Zea mays); Rate 125 g/ha, Preemergence) was 1. For the same compound, the “Plant response rating, Corn” value (corn (Zea mays); Rate 250 g/ha, Postemergence) was 3, the “Plant response rating, Corn” value (corn (Zea mays); Rate 250 g/ha, Preemergence) was 2 and the “Plant response rating, Corn” value (corn (Zea mays); Rate 500 g/ha, Postemergence) was 3. For the same compound, the “Plant response rating, Corn” value (corn (Zea mays); Rate 500 g/ha, Preemergence) was 2, the “Plant response rating, Soybean” value (soybean (Glycine max); [11]) was 0 and the “Soybean plant response rating” value (soybean (Glycine max); Rate 62 g/ha, Postemergence) was 8. For the same compound, the “Soybean plant response rating” value (soybean (Glycine max); Rate 125 g/ha, Postemergence) was 9, the “Plant response rating, Soybean” value (soybean (Glycine max); Rate 125 g/ha, Preemergence) was 1 and the “Plant response rating, Soybean” value (soybean (Glycine max); Rate 250 g/ha, Postemergence) was 9. The “Plant response rating, Soybean” value (soybean (Glycine max); Rate 250 g/ha, Preemergence) was 1, the “Plant response rating, Soybean” value (soybean (Glycine max); Rate 500 g/ha, Postemergence) was 6 and the “Plant response rating, Soybean” value (soybean (Glycine max); Rate 500 g/ha, Preemergence) was 2. The “Plant response rating, Redroot pigweed” value [4, 11] was 9, the “Redroot pigweed plant response rating” value ([4]; Rate 62 g/ha, Postemergence) was 9 and the “Redroot pigweed plant response rating” value ([4]; Rate 125 g/ha, Postemergence) was 9. The “Plant response rating, Redroot pigweed” value ([4]; Rate 125 g/ha, Preemergence) was 10, the “Plant response rating, Redroot pigweed” value ([4]; Rate 250 g/ha, Postemergence) was 10 and the “Plant response rating, Redroot pigweed” value ([4]; Rate 250 g/ha, Preemergence) was 10. The “Plant response rating, Redroot pigweed” value ([4]; Rate 500 g/ha, Postemergence) was 10, the “Plant response rating, Redroot pigweed” value ([4]; Rate 500 g/ha, Preemergence) was 10 and the “Plant response rating, Blackgrass” value [5, 11] was 8. For the same compound, the “Blackgrass plant response rating” value ([5]; Rate 62 g/ha, Postemergence) was 7, the “Blackgrass plant response rating” value ([5]; Rate 125 g/ha, Postemergence) was 7 and the “Plant response rating, Blackgrass” value ([5]; Rate 125 g/ha, Preemergence) was 9. For the same compound, the “Plant response rating, Blackgrass” value ([5]; Rate 250 g/ha, Postemergence) was 9, the “Plant response rating, Blackgrass” value ([5]; Rate 250 g/ha, Preemergence) was 10 and the “Plant response rating, Blackgrass” value ([5]; Rate 500 g/ha, Postemergence) was 9. For the same compound, the “Plant response rating, Blackgrass” value ([5]; Rate 500 g/ha, Preemergence) was 10, the “Plant response rating, Velvetleaf” value [6, 11] was 2 and the “Velvetleaf plant response rating” value ([6]; Rate 62 g/ha, Postemergence) was 9. The “Velvetleaf plant response rating” value ([6]; Rate 125 g/ha, Postemergence) was 9, the “Plant response rating, Velvetleaf” value ([6]; Rate 125 g/ha, Preemergence) was 4 and the “Plant response rating, Velvetleaf” value ([6]; Rate 250 g/ha, Postemergence) was 9. The “Plant response rating, Velvetleaf” value ([6]; Rate 250 g/ha, Preemergence) was 7, the “Plant response rating, Velvetleaf” value ([6]; Rate 500 g/ha, Postemergence) was 10 and the “Plant response rating, Velvetleaf” value ([6]; Rate 500 g/ha, Preemergence) was 8. The “Plant response rating, Cocklebur” value [7, 11] was 0, the “Cocklebur plant response rating” value ([7]; Rate 62 g/ha, Postemergence) was 9 and the “Cocklebur plant response rating” value ([7]; Rate 125 g/ha, Postemergence) was 9. The “Plant response rating, Cocklebur” value ([7]; Rate 125 g/ha, Preemergence) was 1, the “Plant response rating, Cocklebur” value ([7]; Rate 250 g/ha, Postemergence) was 9 and the “Plant response rating, Cocklebur” value ([7]; Rate 250 g/ha, Preemergence) was 7. For the same compound, the “Plant response rating, Cocklebur” value ([7]; Rate 500 g/ha, Postemergence) was 8, the “Plant response rating, Morningglory” value [8, 11] was 3 and the “Morningglory plant response rating” value ([8]; Rate 62 g/ha, Postemergence) was 9. For the same compound, the “Morningglory plant response rating” value ([8]; Rate 125 g/ha, Postemergence) was 9, the “Plant response rating, Morningglory” value ([8]; Rate 125 g/ha, Preemergence) was 9 and the “Plant response rating, Morningglory” value ([8]; Rate 250 g/ha, Postemergence) was 9. The “Plant response rating, Morningglory” value ([8]; Rate 250 g/ha, Preemergence) was 9, the “Plant response rating, Morningglory” value ([8]; Rate 500 g/ha, Postemergence) was 10 and the “Plant response rating, Morningglory” value ([8]; Rate 500 g/ha, Preemergence) was 10. The “Plant response rating, Crabgrass” value [9, 11] was 10, the “Crabgrass plant response rating” value ([9]; Rate 62 g/ha, Postemergence) was 7 and the “Crabgrass plant response rating” value ([9]; Rate 125 g/ha, Postemergence) was 9. For the same compound, the “Plant response rating, Crabgrass” value ([9]; Rate 125 g/ha, Preemergence) was 10, the “Plant response rating, Crabgrass” value ([9]; Rate 250 g/ha, Postemergence) was 9 and the “Plant response rating, Crabgrass” value ([9]; Rate 250 g/ha, Preemergence) was 10. The “Plant response rating, Crabgrass” value ([9]; Rate 500 g/ha, Postemergence) was 9, the “Plant response rating, Crabgrass” value ([9]; Rate 500 g/ha, Preemergence) was 10 and the “Plant response rating, Wheat” value [10, 11] was 2. For the same compound, the “Wheat plant response rating” value ([10]; Rate 62 g/ha, Postemergence) was 4, the “Wheat plant response rating” value ([10]; Rate 125 g/ha, Postemergence) was 4 and the “Plant response rating, Wheat” value ([10]; Rate 125 g/ha, Preemergence) was 4. The “Plant response rating, Wheat” value ([10]; Rate 250 g/ha, Postemergence) was 5, the “Plant response rating, Wheat” value ([10]; Rate 250 g/ha, Preemergence) was 7 and the “Plant response rating, Wheat” value ([10]; Rate 500 g/ha, Postemergence) was 6. For the same compound, the “Plant response rating, Wheat” value ([10]; Rate 500 g/ha, Preemergence) was 9, the “Plant response rating, Wild oats” value (wild oat (Avena fatua); [11]) was 7 and the “Wild oats plant response rating” value (wild oat (Avena fatua); Rate 62 g/ha, Postemergence) was 6. The “Wild oats plant response rating” value (wild oat (Avena fatua); Rate 125 g/ha, Postemergence) was 7, the “Plant response rating, Wild oats” value (wild oat (Avena fatua); Rate 125 g/ha, Preemergence) was 9 and the “Plant response rating, Wild oats” value (wild oat (Avena fatua); Rate 250 g/ha, Postemergence) was 9. The “Plant response rating, Wild oats” value (wild oat (Avena fatua); Rate 250 g/ha, Preemergence) was 10, the “Plant response rating, Wild oats” value (wild oat (Avena fatua); Rate 500 g/ha, Postemergence) was 9 and the “Plant response rating, Wild oats” value (wild oat (Avena fatua); Rate 500 g/ha, Preemergence) was 10.
